Here are results for four molecules from paper PMC8196973, “Synthesis, Molecular Docking Analysis and Biological Evaluations of Saccharide-Modified Thiadiazole Sulfonamide Derivatives” (International Journal of Molecular Sciences, 2021).

The test system of assay [1] is human colon cancer HT-29 cells. The assay can be described thus: CCK-8 cell viability assay, HT-29. Type of assay: cell-based. The conditions noted are these: HT-29, normoxic and hypoxic, 48 h, Figure 5. The method, then:
(§1) The MDA-MB-231, HT-29 and MG-63 cell lines were provided by KeyGEN BioTECH Ltd (Nanjing, Jiangsu, China). The cells were digested and counted to prepare a cell suspension of 5.0 × 10^4 cells/mL, and then 100 μL of cell suspension was added to each well of the 96-well cell culture plate. The plates were placed in a 37 °C, 5% CO2 incubator (Corning Incorporated, Corning, New York, USA) for 24 h. The drug was diluted with the culture medium to the required concentration, ed100 μL of the corresponding drug-containing medium was added to each well, and a negative control group was set up at the same time. The 96-well cell culture plates were placed into a normoxic incubator (37 °C, 5% CO2) and hypoxic incubator (37 °C, 5% CO2, 0.5% O2, 94.5% N2) for 48 h. Finally, the 96-well plate was stained with CCK-8 and the OD value determined (λ = 450 nm).

In assay [2] the test system is breast adenocarcinoma MDA-MB-231 cells. Briefly: CCK-8 cell viability assay, MDA-MB-231. It is filed as cell-based, human. The note with it: MDA-MB-231, normoxic and hypoxic, 48 h, Figure 5. The method, then:
as §1
(In general: Tetrazolium assays rely on reduction of a dye to a coloured formazan, in cell work by metabolically active cells.)

Assay [3] relates to human osteosarcoma MG-63. Briefly: CCK-8 cell viability assay, MG-63. It is filed as cell-based. The conditions noted are these: hypoxic conditions. The method, then:
Then, considering the high inhibitory activity of 14a on the two isoforms of CA IX and XII, we evaluated the inhibitory activity of 14a on human osteosarcoma MG-63 featuring high expression of CA IX and XII.
as §1

Assay [4] addresses hCA II (Homo sapiens, UniProt P00918). Briefly: hCA II enzyme inhibition assay (4-NPA hydrolysis).
Experimental: (§4) Carbonic anhydrase can catalyze the hydrolysis of 4-nitrophenyl acetate (4-NPA). […] The experimental buffer consisted of 15 mmol/L 4-(2-hydroxyethyl)-1-piperazineethanesulfonic acid (HEPES) (pH = 7.40), 0.01% tetraethylene glycol monododecyl ether (Brij), and 100 mmol/L NaCl. […] Then, 18 μL of enzyme solution was transferred into 384-well plates in duplicate. Stock solutions of the inhibitors (10.0 mmol/L) were prepared using DMSO as solvent, and then diluted 1:3 with DMSO. […] Then 2.00 μL of each inhibitor was added to each well. All compounds were allowed to incubate with the enzyme for 15 min at 25 °C to form the Enzyme-Inhibitor (E-I) complex. After that, substrate 4-NPA (1.00 mmol/L, 20.00 μL, Sigma-Aldrich, St. Louis, MI, USA) was added into the E-I complex solution and incubated for 60, 90, 90 min at 25 °C, respectively.
Assay [5] deals with hCA IX (Homo sapiens, UniProt Q16790). The assay can be described thus: hCA IX enzyme inhibition assay (4-NPA hydrolysis).
Experimental: as §4
For assay [6], the target named is hCA XII (Homo sapiens, UniProt O43570). The assay can be described thus: hCA XII enzyme inhibition assay (4-NPA hydrolysis).
Experimental: as §4
Assay [7] concerns MDA-MB-231. The assay can be described thus: Extracellular pH measurement, MDA-MB-231. It is filed as cell-based, human. The conditions noted are these: MDA-MB-231, 0.1 and 1 mM, normoxic and hypoxic, Figure 7. How it is done:
(§2) The high expression of CA IX plays an important role in the maintenance of the tumor cell microenvironment, and inhibiting its activity might have a potential impact on the pH of the tumor microenvironment. To evaluate the effect of compounds on the pH of the microenvironment, the pH values under normoxic and hypoxic conditions were determined in the presence of compounds 14b, 14h, and 14p. […] In addition, this improvement in pH was dose-dependent.
(§3) The measurement of the change of extracellular pH referred to the reported literature. In brief, cancer cells were incubated for 12 h. After removing the medium, fresh medium was added to the plates and then incubated for 48 h under hypoxia or normoxia. The pH of the medium was measured immediately. The tested compounds were dissolved in DMSO and diluted with culture medium to the desired concentration. After the addition of tested compounds, the same procedure was repeated.

Assay [8] concerns HT-29. Briefly: Extracellular pH measurement, HT-29. The note with it: HT-29, 0.1 and 1 mM, normoxic and hypoxic, Figure 7. It is filed as cell-based, human. How it is done: as §2, §3

hCA XII, sequence (O43570 25-354): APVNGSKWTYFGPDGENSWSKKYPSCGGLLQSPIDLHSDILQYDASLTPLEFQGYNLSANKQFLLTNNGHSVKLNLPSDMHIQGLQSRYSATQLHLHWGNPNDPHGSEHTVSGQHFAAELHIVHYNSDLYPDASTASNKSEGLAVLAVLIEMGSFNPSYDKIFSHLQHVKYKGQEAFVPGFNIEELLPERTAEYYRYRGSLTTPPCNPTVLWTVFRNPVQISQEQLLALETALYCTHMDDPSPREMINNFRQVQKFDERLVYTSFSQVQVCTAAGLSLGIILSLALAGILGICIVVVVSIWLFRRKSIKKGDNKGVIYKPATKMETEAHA

For `NS(=O)(=O)c1nnc(NC(=O)c2ccc(NC(=O)CCCC(=O)N[C@@H]3O[C@H](CO)[C@@H](O)[C@H](O)[C@H]3O)cc2)s1` [Compound 14a, N^1-(4-((5-Sulfamoyl-1,3,4-thiadiazol-2-yl)carbamoyl)phenyl)-N^5-((2R,3R,4S,5S,6R)-3,4,5-trihydroxy-6-(hydroxymethyl)tetrahydro-2H-pyran-2-yl)glutaramide], the “inhibitory activity on cell viability compared with AZM” value in assay [1] and in assay [2] was “better than those of the positive control drug AZM” in each case. In assay [3], the “effect on MG-63 viability compared with AZM” value is on record as “significantly better than that of the positive control AZM”. Besides, in assay [3] (800 μM, 48 h), the “reduction of viability of MG-63 cells” value was “approximately 30%”. For the same molecule, the IC50 – broadly, the concentration that gives 50% inhibition – in assay [4] was 141 ± 12.9 nM; in assay [5], 29 ± 4.2 nM; in assay [6] it was 141 ± 5.5 nM.
`NS(=O)(=O)c1nnc(NC(=O)c2cccc(NC(=O)CCCC(=O)N[C@@H]3O[C@H](CO)[C@@H](O)[C@H](O)[C@H]3O)c2)s1` [Compound 14b, N^1-(3-((5-Sulfamoyl-1,3,4-thiadiazol-2-yl)carbamoyl)phenyl)-N^5-((2R,3R,4S,5S,6R)-3,4,5-trihydroxy-6-(hydroxymethyl)tetrahydro-2H-pyran-2-yl)glutaramide]: the “inhibitory activity on cell viability compared with AZM” value in assay [1] and in assay [2] was “better than those of the positive control drug AZM” in each case. Also, the “effect on extracellular (tumor) pH” value in assay [7] and in assay [8] was “increased tumor pH to varying degrees” each time. The IC50 in assay [4] turned out to be 80.3 ± 11.5 nM; in assay [5], 29 ± 1.5 nM; in assay [6], 56 ± 8.5 nM.
In the case of `COc1cc(C(=O)Nc2nnc(S(N)(=O)=O)s2)ccc1NC(=O)CCCC(=O)N[C@@H]1O[C@H](CO)[C@@H](O)[C@H](O)[C@H]1O` [Compound 14h, N^1-(2-Methoxy-4-((5-sulfamoyl-1,3,4-thiadiazol-2-yl)carbamoyl)phenyl)-N^5-((2R,3R,4S,5S,6R)-3,4,5-trihydroxy-6-(hydroxymethyl)tetrahydro-2H-pyran-2-yl)glutaramide], the “inhibitory activity on cell viability compared with AZM” value in assay [1] and in assay [2] was “better than those of the positive control drug AZM” throughout. Besides, the “effect on extracellular (tumor) pH” value in assay [7] and in assay [8] was “increased tumor pH to varying degrees” throughout. For the same molecule, the figures for the IC50 in assay [4], in assay [5] and in assay [6] were 272 ± 9 nM, 68.8 ± 10.2 nM and 84.9 ± 7.6 nM, respectively.
Consider `COc1cc(C(=O)Nc2nnc(S(N)(=O)=O)s2)ccc1NC(=O)CCC(=O)N[C@@H]1O[C@H](CO)[C@@H](O)[C@H](O)[C@H]1O` [Compound 14p, N^1-(2-Methoxy-4-((5-sulfamoyl-1,3,4-thiadiazol-2-yl)carbamoyl)phenyl)-N^4-((2R,3R,4S,5S,6R)-3,4,5-trihydroxy-6-(hydroxymethyl)tetrahydro-2H-pyran-2-yl)succinimide], for which the “inhibitory activity on cell viability compared with AZM” value in assay [1] and in assay [2] was “better than those of the positive control drug AZM” in each case. For the same molecule, the “effect on extracellular (tumor) pH” value in assay [7] and in assay [8] was “increased tumor pH to varying degrees” in each case. The IC50 in assay [4] came to 332 ± 16.8 nM; in assay [5], 47.9 ± 7.1 nM; in assay [6], 42.3 ± 9.4 nM.
